# Experimental data reported in patent US12390451B2, “Small molecule inhibitor of the JAK family of kinases” (Janssen Pharmaceutica NV, priority 2021, dated 2025).
# Where two headings read alike, the source gives them in different places.
# Assays:
# [1] = Tissue distribution in rats after oral administration; assay type: in vivo, male Sprague-Dawley rats; conditions: male, Sprague-Dawley, rat, PO 25 mg/kg
# Method: Preliminary tissue distribution studies were conducted in male Sprague-Dawley rats (N=3/time point) at 0.5, 1, 2, 3, 5, 7, and 24 hours following oral administration of compound of Formula I at a dose of 25 mg/kg. The following tissues were harvested for compound concentration analysis: liver, kidney, brain, muscle, epididymis fat, duodenum, jejunum, ileum, colon (both lumen content and tissue), and plasma. The results of this study indicated low systemic exposure and high local concentrations (intestinal tract).
# [2] = molecular target: T1, JAK2/JAK2 (Homo sapiens, UniProt O60674); experiment: TPO-induced pSTAT-3 in human whole blood; assay type: cell-based; conditions: mean
# T1 construct: endogenous in cells; host or cells: human whole blood
# T1 sequence (O60674 whole entry): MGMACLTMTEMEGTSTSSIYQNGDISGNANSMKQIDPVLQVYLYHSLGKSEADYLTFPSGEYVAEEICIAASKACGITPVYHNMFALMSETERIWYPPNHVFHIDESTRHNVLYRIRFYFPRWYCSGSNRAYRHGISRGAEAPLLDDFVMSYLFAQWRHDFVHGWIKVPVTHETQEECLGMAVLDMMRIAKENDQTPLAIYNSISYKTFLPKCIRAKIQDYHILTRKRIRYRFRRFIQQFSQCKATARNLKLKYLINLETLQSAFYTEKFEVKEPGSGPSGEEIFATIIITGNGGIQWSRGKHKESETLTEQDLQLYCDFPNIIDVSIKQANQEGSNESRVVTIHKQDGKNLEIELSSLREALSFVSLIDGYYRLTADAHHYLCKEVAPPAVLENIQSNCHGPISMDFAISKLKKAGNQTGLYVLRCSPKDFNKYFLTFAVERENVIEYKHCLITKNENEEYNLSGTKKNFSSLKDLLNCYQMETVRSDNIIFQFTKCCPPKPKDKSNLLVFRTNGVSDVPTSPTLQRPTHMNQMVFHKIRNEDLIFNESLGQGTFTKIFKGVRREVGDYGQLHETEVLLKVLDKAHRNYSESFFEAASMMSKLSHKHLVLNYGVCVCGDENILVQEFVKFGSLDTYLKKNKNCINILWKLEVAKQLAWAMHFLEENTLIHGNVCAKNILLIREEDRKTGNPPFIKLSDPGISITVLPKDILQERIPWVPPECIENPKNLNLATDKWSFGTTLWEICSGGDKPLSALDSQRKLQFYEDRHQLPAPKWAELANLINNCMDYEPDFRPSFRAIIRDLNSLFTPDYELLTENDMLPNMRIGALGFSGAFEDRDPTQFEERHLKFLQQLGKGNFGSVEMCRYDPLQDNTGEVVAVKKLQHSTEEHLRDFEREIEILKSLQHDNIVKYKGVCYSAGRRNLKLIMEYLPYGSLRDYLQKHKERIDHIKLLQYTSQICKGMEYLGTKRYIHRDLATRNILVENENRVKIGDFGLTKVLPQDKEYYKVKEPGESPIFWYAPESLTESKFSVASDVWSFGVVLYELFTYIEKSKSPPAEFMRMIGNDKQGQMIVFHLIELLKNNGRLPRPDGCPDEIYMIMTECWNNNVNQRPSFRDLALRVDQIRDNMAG
# T1 sequence (P40238 26-635 partner): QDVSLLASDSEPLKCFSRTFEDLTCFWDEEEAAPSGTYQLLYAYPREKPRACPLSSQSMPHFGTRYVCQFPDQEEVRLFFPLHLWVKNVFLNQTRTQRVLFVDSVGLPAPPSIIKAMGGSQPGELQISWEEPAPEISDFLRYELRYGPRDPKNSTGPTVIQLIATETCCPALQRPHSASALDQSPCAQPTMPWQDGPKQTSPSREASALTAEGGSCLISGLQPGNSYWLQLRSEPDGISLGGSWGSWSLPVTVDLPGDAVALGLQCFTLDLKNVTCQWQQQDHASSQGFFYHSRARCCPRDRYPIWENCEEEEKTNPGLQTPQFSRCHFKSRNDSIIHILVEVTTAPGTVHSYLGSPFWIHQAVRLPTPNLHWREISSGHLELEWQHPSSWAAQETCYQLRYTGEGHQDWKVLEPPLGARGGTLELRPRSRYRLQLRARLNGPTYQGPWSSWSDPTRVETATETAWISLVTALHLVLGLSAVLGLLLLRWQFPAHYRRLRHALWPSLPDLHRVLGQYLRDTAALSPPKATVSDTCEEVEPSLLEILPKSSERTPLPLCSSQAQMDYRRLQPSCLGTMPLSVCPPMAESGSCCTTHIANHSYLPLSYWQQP
# Method: Compound of Formula I presents low levels of systemic exposure after oral administration. To understand the relationship between systemic exposure and target engagement in human studies, the inhibition of cytokine-induced pSTAT-3 in human whole blood was measured with such compound. In human whole blood, compound of Formula I in a concentration-dependent manner inhibited the JAK1, JAK2, JAK3, and Tyk2 homo- and heterodimers downstream of IFNα (JAK1/Tyk2), thrombopoietin (TPO) (JAK2/JAK2), and IL-21 (JAK1/JAK3) signaling.
# [3] = tested on: IL-22/IL-6/IFNα-induced pSTAT-3 response; experiment: Ex vivo mouse colon explant model (IL-22/IL-6/IFNα) after oral dosing; assay type: in vivo, C57BL/6 mice; conditions: for inhibition at 0.5 mg/kg: oral 0.5 mg/kg; for inhibition at 2.5 mg/kg: oral 2.5 mg/kg; for inhibition at 5 mg/kg: oral 5 mg/kg; for inhibition at 25 mg/kg: oral 25 mg/kg
# Excerpt: To understand the potential of local, enteric-selective JAK inhibitors to inhibit STAT signaling in colon tissue, two pharmacokinetic/pharmacodynamic (PK/PD) studies were developed. The first involved the combined intraperitoneal administration of IL-12 and IL-18 in mice which induces a systemic inflammatory response resulting in activation of the JAK/STAT pathway in colonic tissue which can be monitored by robust phosphorylation of STAT3 three hours after challenge. The second PK/PD model involves the ex vivo stimulation of mouse colon tissue with a cocktail of cytokines (IL-22, IL-6, and IFNα), measuring the inhibition of STAT3 phosphorylation after oral dosing of compound of Formula I.
# In addition to the IL-12/IL-18 model described above, local efficacy of compound of Formula I was further established in a mouse cytokine mixture (IL-22/IL-6/IFNα) colon explant model. A combination of IL-22, IL-6 and IFNα induced a rapid and robust pSTAT-3 response in mouse colon explants ex vivo 1 hour post challenge. This study aimed at examining the dose response and duration of action of compound of Formula I on IL 22/IL 6/IFNα-induced pSTAT-3 response in an ex vivo mouse colon explant model.
# C57BL/6 mice (6 to 8 weeks old) were randomized by weight and assigned to various treatment groups for each study. Mice were dosed orally with indicated doses of compound of Formula I. At the termination of the study, blood was collected via cardiocentesis, serum and washed proximal colon was prepared for PK analysis.
# Distal colon explants (approximately 3 mm^2) were either untreated or treated with cytokines (IL 6, IL-22, IFNα at 100 ng/mL each). Following stimulation for 1 hour, tissue was snap-frozen for homogenization and assayed for pSTAT-3.
# [4] = ileum tissue, average, N = 3, read-out: Ileum Tissue concentration
# [5] = jejunum lumen content, average, N = 3, read-out: Jejunum Content concentration
# [6] = jejunum tissue, average, N = 3, read-out: Jejunum Tissue concentration
# [7] = kidney, average ±SD, read-out: Kidney concentration
# [8] = liver, average ±SD, read-out: Liver concentration
# [9] = plasma, average ±SD, read-out: Plasma concentration
# [10] = SS-1, mice, read-out: inhibition of IL-22/IL-6/IFNα-stimulated pSTAT-3 response in colon explants
# [11] = SS-1, mice, read-out: inhibition of basal pSTAT-3 response in colon explants
# [12] = SS-2, mice, read-out: inhibition of IL-22/IL-6/IFNα-stimulated pSTAT-3 in colon explants
# [13] = SS-2, mice, read-out: inhibition of basal pSTAT-3 in colon explants
smiles,measurement,setting,value
"CC(C)(O)CNC(=O)Cc1nc2cnc3[nH]ccc3c2n1[C@H]1CC[C@H](CC#N)CC1 [Compound of Formula I, 2-(1-((1r,4r)-4-(Cyanomethyl)cyclohexyl)-1,6-dihydroimidazo[4,5-d]pyrrolo[2,3-b]pyridin-2-yl)-N-(2-hydroxy-2-methylpropyl)acetamide]",concentration at 0.5 h,[1]; [4],1340 ng/g
same,concentration at 1 h,[1]; [4],252 ng/g
same,concentration at 2 h,[1]; [4],8950 ng/g
same,concentration at 3 h,[1]; [4],50800 ng/g
same,concentration at 5 h,[1]; [4],18000 ng/g
same,concentration at 7 h,[1]; [4],6490 ng/g
same,concentration at 0.5 h,[1]; [5],533000 ng/mL
same,concentration at 1 h,[1]; [5],249000 ng/mL
same,concentration at 2 h,[1]; [5],90700 ng/mL
same,concentration at 3 h,[1]; [5],48000 ng/mL
same,concentration at 5 h,[1]; [5],26300 ng/mL
same,concentration at 7 h,[1]; [5],10300 ng/mL
same,concentration at 24 h,[1]; [5],228 ng/mL
same,concentration at 0.5 h,[1]; [6],47200 ng/g
same,concentration at 1 h,[1]; [6],23500 ng/g
same,concentration at 2 h,[1]; [6],8230 ng/g
same,concentration at 3 h,[1]; [6],3980 ng/g
same,concentration at 5 h,[1]; [6],1810 ng/g
same,concentration at 7 h,[1]; [6],788 ng/g
same,concentration at 24 h,[1]; [6],27 ng/g
same,concentration at 0.5 h,[1]; [7],57.9 ± 26.2 ng/g
same,concentration at 2 h,[1]; [7],24.3 ± 6.6 ng/g
same,concentration at 3 h,[1]; [7],30 ± 9.4 ng/g
same,concentration at 5 h,[1]; [7],12.9 ± 3.6 ng/g
same,concentration at 7 h,[1]; [7],19.9 ± 7.8 ng/g
same,concentration at 0.5 h,[1]; [8],158 ± 104 ng/g
same,concentration at 1 h,"[1]; liver, SD NA, read-out: Liver concentration",70.4 ng/g
same,concentration at 2 h,[1]; [8],49.9 ± 17.5 ng/g
same,concentration at 3 h,[1]; [8],29.6 ± 14.5 ng/g
same,concentration at 5 h,[1]; [8],18.7 ± 3 ng/g
same,concentration at 7 h,[1]; [8],20.7 ± 3 ng/g
same,concentration at 0.5 h,"[1]; muscle, average ±SD, read-out: Muscle concentration",16.7 ± 15 ng/g
same,concentration at 0.5 h,[1]; [9],6.3 ± 1.1 ng/mL
same,concentration at 2 h,[1]; [9],3.7 ± 0.9 ng/mL
same,concentration at 3 h,[1]; [9],3.1 ± 1.1 ng/mL
same,concentration at 5 h,[1]; [9],1.5 ± 0.7 ng/mL
same,concentration at 7 h,[1]; [9],2.1 ± 0.5 ng/mL
same,IC50,[2],0.49 µM
same,inhibition at 0.5 mg/kg,[3]; [10],42.7%
same,inhibition at 0.5 mg/kg,[3]; [11],54.3%
same,inhibition at 2.5 mg/kg,[3]; [10],74.9%
same,inhibition at 2.5 mg/kg,[3]; [11],74.4%
same,inhibition at 5 mg/kg,[3]; [10],83.8%
same,inhibition at 5 mg/kg,[3]; [11],78.6%
same,inhibition at 25 mg/kg,[3]; [10],93.8%
same,inhibition at 25 mg/kg,[3]; [11],89.5%
same,inhibition at 0.5 mg/kg,[3]; [12],5.5%
same,inhibition at 0.5 mg/kg,[3]; [13],36.7%
same,inhibition at 2.5 mg/kg,[3]; [12],62%
same,inhibition at 2.5 mg/kg,[3]; [13],66.2%
same,inhibition at 5 mg/kg,[3]; [12],68.1%
same,inhibition at 5 mg/kg,[3]; [13],71.3%
same,inhibition at 25 mg/kg,[3]; [12],89.8%
same,inhibition at 25 mg/kg,[3]; [13],83.8%
